Test results from ChEMBL document CHEMBL1697781, “Assessment of the health effects of chemicals in humans: II. Construction of an adverse effects database for QSAR modeling” (Curr Drug Discov Technol, 2004).

Assays:
Conditions in all cases: human; call rule not given here
Hepatotoxicity [1] = assay: FDA HLAED, gamma-glutamyl transferase (GGT) increase
Hepatotoxicity [2] = assay: FDA HLAED, serum glutamic pyruvic transaminase (SGPT) increase
Hepatotoxicity [3] = assay: FDA HLAED, serum glutamic oxaloacetic transaminase (SGOT) increase
Hepatotoxicity [4] = assay: FDA HLAED, alkaline phosphatase increase
Hepatotoxicity [5] = assay: FDA HLAED, lactate dehydrogenase (LDH) increase
Hepatotoxicity [6] = assay: FDA HLAED, liver enzyme composite activity
Throughout, for GGT Increase - Index Value: reference of the scale not given here.
Throughout, for LDH Increase - Index Value: reference of the scale not given here.

Row | Compound | GGT Increase - Activity Score (Hepatotoxicity [1]) | GGT Increase - Index Value (Hepatotoxicity [1]) | GGT Increase - Number of Reports (Hepatotoxicity [1]) | SGPT Increase - Activity Score (Hepatotoxicity [2]) | SGPT Increase - Index Value (Hepatotoxicity [2]) | SGPT Increase - Number of Reports (Hepatotoxicity [2]) | SGOT Increase - Activity Score (Hepatotoxicity [3]) | SGOT Increase - Index Value (Hepatotoxicity [3]) | SGOT Increase - Number of Reports (Hepatotoxicity [3]) | Alkaline Phosphatase Increase - Activity Score (Hepatotoxicity [4]) | Alkaline Phosphatase Increase - Index Value (Hepatotoxicity [4]) | Alkaline Phosphatase Increase - Number of Reports (Hepatotoxicity [4]) | LDH Increase - Activity Score (Hepatotoxicity [5]) | LDH Increase - Index Value (Hepatotoxicity [5]) | LDH Increase - Number of Reports (Hepatotoxicity [5]) | Composite Activity - Active (Hepatotoxicity [6]) | Composite Activity - Marginal (Hepatotoxicity [6]) | Composite Activity - Score (Hepatotoxicity [6]) | Composite Activity - Active (Hepatotoxicity [6]; Liver) | Composite Activity - Marginal (Hepatotoxicity [6]; Liver) | further results
1 | C/C(=C\C(=O)OCCCCCCCCC(=O)O)C[C@@H]1OC[C@H](C[C@@H]2O[C@H]2[C@@H](C)[C@H](C)O)[C@@H](O)[C@H]1O [MUPIROCIN] | Inactive | 0 | < 4 | Inactive | 0 | < 4 | Inactive | 0 | < 4 | Inactive | 0 | < 4 | Inactive | 0 | < 4 | 0 | 0 | Inactive |  |  | 
2 | Cc1cccc(C)c1OCC(C)N (stereo not drawn) [MEXILETINE] | Inactive | 0 | < 4 | Marginally Active | 3.6 | >= 4 | Active | 6.7 | >= 4 | Marginally Active | 3.1 | >= 4 | Inactive | 2 | >= 4 |  |  |  | 1 | 2 | Composite Activity - Score (Hepatotoxicity [6]; Liver): Inactive
3 | O=C(O)c1cc(-c2ccc(F)cc2F)ccc1O [DIFLUNISAL] | Inactive | 0 | < 4 | Inactive | 0.5 | < 4 | Inactive | 0.3 | < 4 | Inactive | 0 | < 4 | Inactive | 0 | < 4 |  |  |  | 0 | 0 | Composite Activity - Score (Hepatotoxicity [6]; Liver): Inactive
4 | CC(C)NCC(O)COc1ccc(COCCOC(C)C)cc1 (stereo not drawn) [BISOPROLOL] | Active | 12.3 | < 4 | Inactive | 3.1 | < 4 | Inactive | 0 | < 4 | Inactive | 3.1 | < 4 | Inactive | 0 | < 4 | 1 | 0 | Inactive |  |  | 
5 | C[C@@H]1CN([C@H]2CC[C@](C#N)(c3ccc(F)cc3)CC2)CC[C@]1(C(=O)O)c1ccccc1 [LEVOCABASTINE] | Inactive | 0 | < 4 | Inactive | 0 | < 4 | Inactive | 0 | < 4 | Inactive | 0 | < 4 | Inactive | 0 | < 4 | 0 | 0 | Inactive |  |  | 
6 | C[C@]12CC[C@@H]3c4ccc(OC(=O)N(CCCl)CCCl)cc4CC[C@H]3[C@@H]1CC[C@@H]2O [ESTRAMUSTINE] | Inactive | 0 | < 4 | Inactive | 0 | < 4 | Inactive | 0 | < 4 | Active | 43.7 | < 4 | Inactive | 0 | < 4 | 1 | 0 | Inactive |  |  | 
